Source: PubChem BioAssay AID256 (DTP/NCI, 2004)
Where “and” joins values, the source holds several entries; their conditions need not be identical. Equal values may be shown once. Toxic doses and inconclusive results are not listed. Rule for the calls: active = survival T/C of 150% or more; inactive = T/C below 125% in these data.

System: CD2F1 mice, L1210 leukemia ip, survival T/C
Assay: NCI In Vivo Anticancer Drug Screen. Data for tumor model L1210 Leukemia (intraperitoneal) in CD2F1 (CDF1) mice
Details: higher = longer survival
In short: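 Mice carrying a transplanted tumor received test compound or vehicle alone. The value is the measurement in the treated group divided by that in the vehicle-treated control group.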

[1] = endpoint: mean survival time, dose: 25.0 mg/kg/injection, schedule: Q01DX009 (ip), vehicle: saline with Tween-80
[2] = endpoint: mean survival time, dose: 50.0 mg/kg/injection, schedule: Q01DX009 (ip), vehicle: saline with Tween-80
[3] = endpoint: mean survival time, dose: 100.0 mg/kg/injection, schedule: Q01DX009 (ip), vehicle: saline with Tween-80
[4] = endpoint: mean survival time, dose: 100.0 mg/kg/injection, schedule: Q04DX003 (ip), vehicle: saline with Tween-80
[5] = endpoint: mean survival time, dose: 200.0 mg/kg/injection, schedule: Q01DX009 (ip), vehicle: saline with Tween-80
[6] = endpoint: mean survival time, dose: 200.0 mg/kg/injection, schedule: Q04DX003 (ip), vehicle: saline with Tween-80
[7] = endpoint: mean survival time, dose: 400.0 mg/kg/injection, schedule: Q04DX003 (ip), vehicle: saline with Tween-80
[8] = endpoint: mean survival time, dose: 400.0 mg/kg/injection, schedule: Q01DX009 (ip), vehicle: saline with Tween-80
[9] = endpoint: mean survival time, dose: 100.0 mg/kg/injection, schedule: Q01DX009 (ip), vehicle: saline
[10] = endpoint: mean survival time, dose: 100.0 mg/kg/injection, schedule: Q01DX001 (ip), vehicle: saline
[11] = endpoint: mean survival time, dose: 200.0 mg/kg/injection, schedule: Q01DX001 (ip), vehicle: saline

Measured: T/C

COC1=C(OC)C(=O)C(C/C=C(\C)CCCC(C)CCCC(C)CCCC(C)C)=C(C)C1=O (stereo not given)
inactive: endpoint: mean survival time, dose: 100.0 mg/kg/injection, schedule: Q01DX009 (ip), vehicle: other 94 % of control | endpoint: mean survival time, dose: 200.0 mg/kg/injection, schedule: Q01DX009 (ip), vehicle: other 95 % of control | endpoint: mean survival time, dose: 400.0 mg/kg/injection, schedule: Q01DX009 (ip), vehicle: other 94 % of control

CCCCOc1ccc(NC(=O)CCl)cc1
inactive: [1] 96 % of control | endpoint: mean survival time, dose: 25.0 mg/kg/injection, schedule: Q04DX003 (ip), vehicle: saline 95 % of control | [2] 96 % of control | endpoint: mean survival time, dose: 50.0 mg/kg/injection, schedule: Q04DX003 (ip), vehicle: saline 101 % of control | endpoint: mean survival time, dose: 100.0 mg/kg/injection, schedule: Q04DX003 (ip), vehicle: saline 94 % of control

CCOC(=O)/C=C/CP(=O)(OCC)OCC
inactive: endpoint: mean survival time, dose: 50.0 mg/kg/injection, schedule: Q01DX001 (ip), vehicle: carboxymethylcellulose (CMC) 102 % of control

COC(=O)c1c(C)c(-c2ccccc2)c(-c2ccccc2)c(C)c1C(=O)OC
inactive: endpoint: mean survival time, dose: 100.0 mg/kg/injection, schedule: Q04DX002 (ip), vehicle: saline with Tween-80 98 % of control | endpoint: mean survival time, dose: 200.0 mg/kg/injection, schedule: Q04DX002 (ip), vehicle: saline with Tween-80 95 % of control | endpoint: mean survival time, dose: 400.0 mg/kg/injection, schedule: Q04DX002 (ip), vehicle: saline with Tween-80 95 % of control

N=C(N)N
inactive: [2] 96 % of control | [3] 98 % of control | [4] 96 % of control | [5] 96 % of control | [6] 94 % of control

C[C@]12CC[C@H](O)C[C@@]1(O)CC[C@@H]1[C@@H]2CC[C@]2(C)[C@@H](c3ccc(=O)oc3)C[C@H]3O[C@]132
inactive: endpoint: mean survival time, dose: 2.5 mg/kg/injection, schedule: Q01DX009 (ip), vehicle: other 97 % of control | endpoint: mean survival time, dose: 5.0 mg/kg/injection, schedule: Q01DX009 (ip), vehicle: other 92 % of control | endpoint: mean survival time, dose: 10.0 mg/kg/injection, schedule: Q01DX009 (ip), vehicle: other 91 % of control

[O-][n+]1c2cccc(O)c2[n+]([O-])c2cccc(O)c21
inactive: [4] 91 % of control | [6] 100 % of control | [7] 103 % of control

CC(C)OC(CCCl)c1ccc(Cl)cc1 (stereo not given)
inactive: [3] 104 % of control | [4] 94 % of control | [5] 96 % of control | [6] 96 % of control | [8] 89 % of control | [7] 97 % of control

CN(N=O)P(=O)(Nc1ccccc1)Nc1ccccc1
inactive: endpoint: mean survival time, dose: 25.0 mg/kg/injection, schedule: Q04DX003 (ip), vehicle: other 101 % of control | endpoint: mean survival time, dose: 50.0 mg/kg/injection, schedule: Q04DX003 (ip), vehicle: other 98 % of control | endpoint: mean survival time, dose: 100.0 mg/kg/injection, schedule: Q04DX003 (ip), vehicle: other 103 % of control

CCOC(=O)c1ccc(OC(=O)Nc2ccc(Cl)cc2)cc1
inactive: [3] 96 % of control | [4] 94 % of control | [5] 102 % of control | [6] 94 % of control | [8] 100 % of control

CN(C)CCN(C)C
inactive: [9] 96 % of control | endpoint: mean survival time, dose: 400.0 mg/kg/injection, schedule: Q01DX009 (ip), vehicle: saline 106 % of control

CC(S(N)(=O)=O)S(N)(=O)=O
inactive: endpoint: mean survival time, dose: 100.0 mg/kg/injection, schedule: Q01DX001 (ip), vehicle: saline with Tween-80 105 % of control | endpoint: mean survival time, dose: 200.0 mg/kg/injection, schedule: Q01DX001 (ip), vehicle: saline with Tween-80 102 % of control | endpoint: mean survival time, dose: 400.0 mg/kg/injection, schedule: Q01DX001 (ip), vehicle: saline with Tween-80 94 % of control

COc1ccc(OC)c(NC(=O)c2cccc([N+](=O)[O-])c2)c1
inactive: [3] 90 % of control and 103 % of control | [5] 92 % of control and 93 % of control | [8] 89 % of control and 95 % of control

CC1OC(n2ncc(=O)[nH]c2=O)C(O)C(O)C1O (stereo not given)
inactive: endpoint: mean survival time, dose: 12.5 mg/kg/injection, schedule: Q01DX005 (ip), vehicle: distilled water + Tween-80 105 % of control | endpoint: mean survival time, dose: 25.0 mg/kg/injection, schedule: Q01DX005 (ip), vehicle: distilled water + Tween-80 100 % of control | endpoint: mean survival time, dose: 50.0 mg/kg/injection, schedule: Q01DX005 (ip), vehicle: distilled water + Tween-80 103 % of control | endpoint: mean survival time, dose: 100.0 mg/kg/injection, schedule: Q01DX005 (ip), vehicle: distilled water + Tween-80 103 % of control | endpoint: mean survival time, dose: 200.0 mg/kg/injection, schedule: Q01DX005 (ip), vehicle: distilled water + Tween-80 107 % of control

CCC1CCC(NC(=O)NC)CC1 (stereo not given)
inactive: [4] 99 % of control | [6] 92 % of control

CC1=NC(C#N)=C(C#N)N=C(C)C1
inactive: endpoint: mean survival time, dose: 10.0 mg/kg/injection, schedule: Q04DX003 (ip), vehicle: Klucel (hydroxypropylcellulose) (HPC) 102 % of control | endpoint: mean survival time, dose: 20.0 mg/kg/injection, schedule: Q04DX003 (ip), vehicle: Klucel (hydroxypropylcellulose) (HPC) 98 % of control | endpoint: mean survival time, dose: 40.0 mg/kg/injection, schedule: Q04DX003 (ip), vehicle: Klucel (hydroxypropylcellulose) (HPC) 106 % of control

CC1Oc2cc3c(-c4c(O)cc(O)c5c(O)c6c(cc45)OC(C)C(C)C6=O)c(O)cc(O)c3c(O)c2C(=O)C1C (stereo not given)
inactive: endpoint: median survival time, dose: 5.0 mg/kg/injection, schedule: Q01DX009 (ip), vehicle: suspension in saline 87 % of control | endpoint: median survival time, dose: 10.0 mg/kg/injection, schedule: Q01DX009 (ip), vehicle: suspension in saline 91 % of control

O/N=C/c1ccc(O)cc1O
inactive: [10] 100 % of control | [11] 102 % of control

Cc1ccc(S(=O)(=O)NC(=O)NCCC(C)C)cc1
inactive: endpoint: mean survival time, dose: 100.0 mg/kg/injection, schedule: Q01DX009 (ip), vehicle: saline sonified 104 % of control | endpoint: mean survival time, dose: 200.0 mg/kg/injection, schedule: Q01DX009 (ip), vehicle: saline sonified 97 % of control | endpoint: mean survival time, dose: 400.0 mg/kg/injection, schedule: Q01DX009 (ip), vehicle: saline sonified 98 % of control

O=[N+]([O-])c1cc2ccccc2c(O)c1O
inactive: [1] 102 % of control | [2] 108 % of control | [4] 91 % of control

O=C(CCCCl)Nc1cc([N+](=O)[O-])ccc1OCc1ccccc1
inactive: [10] 94 % of control | [11] 94 % of control | endpoint: mean survival time, dose: 400.0 mg/kg/injection, schedule: Q01DX001 (ip), vehicle: saline 94 % of control

CC1(C)CC(OP(=O)(c2ccccc2)c2ccccc2)CC(C)(C)N1O
inactive: endpoint: mean survival time, dose: 100.0 mg/kg/injection, schedule: Q04DX003 (ip), vehicle: water 106 % of control | endpoint: mean survival time, dose: 200.0 mg/kg/injection, schedule: Q04DX003 (ip), vehicle: water 91 % of control | endpoint: mean survival time, dose: 400.0 mg/kg/injection, schedule: Q04DX003 (ip), vehicle: water 102 % of control

O=C1C(Br)=C(Br)C(=O)C(Br)=C1Br
inactive: [2] 91 % of control | [3] 94 % of control | [5] 86 % of control

O=C(C[n+]1ccccc1)N/N=C/c1ccccc1Cl
inactive: [3] 105 % of control

C[Si](C)C(Cl)Cl
inactive: endpoint: mean survival time, dose: 75.0 mg/kg/injection, schedule: Q01DX009 (ip), vehicle: saline with Tween-80 96 % of control | endpoint: mean survival time, dose: 150.0 mg/kg/injection, schedule: Q01DX009 (ip), vehicle: saline with Tween-80 98 % of control | endpoint: mean survival time, dose: 300.0 mg/kg/injection, schedule: Q01DX009 (ip), vehicle: saline with Tween-80 102 % of control

O=C(O)C1CC[N-]CC1.O=C(O)C1CC[N-]CC1.O=C(O)C1CC[N-]CC1.O=C(O)C1CC[N-]CC1.[Cl][Rh][Cl]
inactive: endpoint: mean survival time, dose: 66.0 mg/kg/injection, schedule: Q01DX009 (ip), vehicle: saline 112 % of control | [9] 110 % of control

CCC(C)C(CO)c1ccccc1 (stereo not given)
inactive: [2] 98 % of control | [3] 88 % of control

Fc1ccc2c(c1)CC(CBr)O2 (stereo not given)
inactive: [3] 100 % of control | [5] 105 % of control | [8] 96 % of control
